Reference: article PMC10424186 (Journal of Medicinal Chemistry, 2023)
Entries after “also recorded” stand apart in the source; their conditions may differ. Where two headings read alike, the source gives them in different places.

Legend:
KDM4E [1] = target: T1, KDM4E (Homo sapiens, UniProt B2RXH2); conditions: cited from earlier work
T1 construct: made in house; host or cells: Escherichia coli
T1 sequence (B2RXH2 1-506): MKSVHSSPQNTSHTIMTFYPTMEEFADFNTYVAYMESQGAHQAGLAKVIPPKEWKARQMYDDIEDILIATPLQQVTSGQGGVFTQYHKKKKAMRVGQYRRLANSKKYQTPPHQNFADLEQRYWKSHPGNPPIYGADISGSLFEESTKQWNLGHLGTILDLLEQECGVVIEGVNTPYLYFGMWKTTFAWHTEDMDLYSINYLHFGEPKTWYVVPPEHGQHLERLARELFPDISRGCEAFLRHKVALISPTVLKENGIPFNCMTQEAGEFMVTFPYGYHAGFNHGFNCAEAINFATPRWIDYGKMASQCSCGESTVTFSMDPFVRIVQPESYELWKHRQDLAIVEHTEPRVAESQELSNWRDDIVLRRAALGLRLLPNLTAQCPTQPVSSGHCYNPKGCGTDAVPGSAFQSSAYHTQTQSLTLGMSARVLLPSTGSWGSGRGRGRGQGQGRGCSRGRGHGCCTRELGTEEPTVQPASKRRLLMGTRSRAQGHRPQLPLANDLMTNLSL

human JMJD5 = human JMJD5 (Homo sapiens, UniProt Q8N371); assay: SPE-MS JMJD5 inhibition assay (hydroxylation of RPS6 128–148 peptide); assay type: biochemical
Source text: Synthetic peptides with sequences based on reported human 2OG oxygenase substrates were used in SPE-MS inhibition assays: RPS6, residues 128–148, for JMJD5;[42] HIF-α CODD, residues 558–574, for PHD2;[70] HIF-α CAD, residues 788–822, for FIH;[70] H3_1-15K9me3, histone 3 (H3), residues 1–15 with K9 of H3-bearing three methyl groups at the N^ε-position, K4 of H3 substituted by an alanine residue, and K14 of H3 by an isoleucine residue,[73] for KDM4E; and RPL27A, residues 31–49, for RIOX2 (Mina53).[44] All peptides were prepared as C-terminal amides by GL Biochem (Shanghai) Ltd. A synthetic thioether-linked cyclic peptide, hFX-CP101–119,[48] which was designed based on the reported cellular AspH substrate human coagulation factor X (hFX, residues 101–119; C101 was substituted for a D-alanine residue and C112 for a serine residue),[79] was used as AspH substrate; it was prepared with a C-terminal amide according to literature protocols.[80]
Cosubstrate/cofactor stock solutions [L-ascorbic acid/LAA: 50 mM in MQ-grade water; 2-oxoglutarate/2OG: 10 mM in MQ-grade water; ammonium iron(II) sulfate hexahydrate/FAS/(NH4)2Fe(SO4)2·6H2O: 400 mM in 20 mM HCl diluted to 1 mM in MQ-grade water] were freshly prepared from commercial solids (Sigma-Aldrich) on the day the assays were performed. The JMJD5,[42] PHD2,[70] FIH,[70] KDM4E,[72],[73] RIOX2,[44] and AspH[45] SPE-MS inhibition assays were performed as described in the cited literature, using isolated recombinant human enzymes (His6-thioredoxin-JMJD5,[42] His6-PHD2_181–426,[70] His6-FIH,[70] His6-KDM4E,[72],[73] His6-RIOX2_26–465,[87],[88] and His6-AspH315–758[48],[80]) and synthetic peptide substrates (RPS6_128–148 for JMJD5;[42] HIF-α CODD558–574 for PHD2;[70] HIF-α CAD788–822 for FIH;[70] H3_1–15K9me3 for KDM4E;[73] RPL27A31–49 for RIOX2;[44],[71] and hFX-CP101–119 for AspH;[45],[48] see above). For JMJD5, PHD2, FIH, RIOX2, and AspH, substrate hydroxylation was monitored (+16 Da mass shift), while for the KDM4E substrate, demethylation was monitored (−14 Da mass shift) by SPE-MS.

AspH [2] = target: T2, AspH (Homo sapiens, UniProt Q12797); conditions: cited from earlier work; for IC50 AspH: Supporting Table S1, reported SPE-MS value, ref SI 18
T2 construct: N-terminally His6-tagged AspH315–758; made in house; host or cells: Escherichia coli
T2 sequence (Q12797 315-758): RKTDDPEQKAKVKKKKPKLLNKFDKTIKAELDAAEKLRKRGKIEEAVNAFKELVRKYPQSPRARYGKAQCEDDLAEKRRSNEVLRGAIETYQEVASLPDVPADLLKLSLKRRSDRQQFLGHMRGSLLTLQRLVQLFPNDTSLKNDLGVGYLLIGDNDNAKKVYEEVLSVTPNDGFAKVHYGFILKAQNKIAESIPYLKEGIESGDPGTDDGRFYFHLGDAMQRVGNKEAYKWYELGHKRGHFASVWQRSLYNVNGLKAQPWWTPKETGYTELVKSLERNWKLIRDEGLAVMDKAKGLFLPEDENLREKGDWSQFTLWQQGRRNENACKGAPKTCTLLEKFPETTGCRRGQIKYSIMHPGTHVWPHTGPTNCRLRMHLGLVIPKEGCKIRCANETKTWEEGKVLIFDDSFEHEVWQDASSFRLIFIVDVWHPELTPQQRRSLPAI

AspH [3] = target: T2, AspH; assay: SPE-MS AspH inhibition assay (hFX-CP101–119 hydroxylation); assay type: biochemical; conditions: Table 2; His6-AspH315–758 0.05 μM, 1.0 μM hFX-CP101–119; n = 2, mean ± SD
Description: (§1) H3_1-15K9me3, histone 3 (H3), residues 1–15 with K9 of H3-bearing three methyl groups at the N^ε-position, K4 of H3 substituted by an alanine residue, and K14 of H3 by an isoleucine residue,[73] for KDM4E; and RPL27A, residues 31–49, for RIOX2 (Mina53).[44]
(§2) Cosubstrate/cofactor stock solutions [L-ascorbic acid/LAA: 50 mM in MQ-grade water; 2-oxoglutarate/2OG: 10 mM in MQ-grade water; ammonium iron(II) sulfate hexahydrate/FAS/(NH4)2Fe(SO4)2·6H2O: 400 mM in 20 mM HCl diluted to 1 mM in MQ-grade water] were freshly prepared from commercial solids (Sigma-Aldrich) on the day the assays were performed. The JMJD5,[42] PHD2,[70] FIH,[70] KDM4E,[72],[73] RIOX2,[44] and AspH[45] […] For JMJD5, PHD2, FIH, RIOX2, and AspH, substrate hydroxylation was monitored (+16 Da mass shift), while for the KDM4E substrate, demethylation was monitored (−14 Da mass shift) by SPE-MS.

KDM4E [4] = target: T1, KDM4E; assay: SPE-MS KDM4E inhibition assay (demethylation of H3 1–15 K9me3); assay type: biochemical; conditions: Table 2, 10.0 μM H3 1–15 K9me3, n = 2, mean ± SD
Description: as §1, §2

PHD2 = target: T3, PHD2 (Homo sapiens, UniProt Q9GZT9); assay: SPE-MS PHD2 inhibition assay (HIF-1α CODD hydroxylation); assay type: biochemical; conditions: Table 2; PHD2 181–426 […], 5.0 μM HIF-1α CODD; n = 2, mean ± SD
T3 construct: His6-PHD2_181–426; made in house; host or cells: Escherichia coli
Description: as §1, §2

RIOX2 = target: T4, RIOX2 (Homo sapiens, UniProt Q8IUF8); assay: SPE-MS RIOX2 inhibition assay (RPL27A31–49 hydroxylation); assay type: biochemical; conditions: Table 2; His6-RIOX2 26–465 […], 5.0 μM RPL27A31–49; n = 2, mean ± SD
T4 construct: N-terminally His6-tagged RIOX2_26–465; made in house; host or cells: Escherichia coli
Description: Cosubstrate/cofactor stock solutions [L-ascorbic acid/LAA: 50 mM in MQ-grade water; 2-oxoglutarate/2OG: 10 mM in MQ-grade water; ammonium iron(II) sulfate hexahydrate/FAS/(NH4)2Fe(SO4)2·6H2O: 400 mM in 20 mM HCl diluted to 1 mM in MQ-grade water] were freshly prepared from commercial solids (Sigma-Aldrich) on the day the assays were performed. […] For JMJD5, PHD2, FIH, RIOX2, and AspH, substrate hydroxylation was monitored (+16 Da mass shift), while for the KDM4E substrate, demethylation was monitored (−14 Da mass shift) by SPE-MS.

KDM4E [5] = target: T1, KDM4E; conditions: Supporting Table S1; reported FDH-coupled spectrophotometric assay; ref SI 17; cited from earlier work
[6] = Table 1, JMJD5 […], 2OG 2.0 μM, Fe(II) 2.0 μM, LAA 100 μM, RPS6 128–148 2.0 μM, pH 7.5, 20 °C, n = 3, mean ± SD, read-out: IC50 JMJD5
[7] = isolated recombinant JMJD5, SPE-MS
[8] = isolated recombinant JMJD5, SPE-MS, approximate values, read-out: IC50 for JMJD5 inhibition
[9] = Table 2, JMJD5 […], 2OG 2.0 μM, Fe(II) 2.0 μM, LAA 100 μM, RPS6 128–148 2.0 μM, n = 3, mean ± SD, read-out: IC50 JMJD5
[10] = Supporting Table S1, JMJD5 […], 2OG 2.0 μM, RPS6 128-148 2.0 μM, pH 7.5, 20 °C, n = 3, mean ± SD, read-out: IC50 JMJD5
[11] = supplementary CSV, read-out: IC50 JMJD5

T4 sequence (Q8IUF8 26-465): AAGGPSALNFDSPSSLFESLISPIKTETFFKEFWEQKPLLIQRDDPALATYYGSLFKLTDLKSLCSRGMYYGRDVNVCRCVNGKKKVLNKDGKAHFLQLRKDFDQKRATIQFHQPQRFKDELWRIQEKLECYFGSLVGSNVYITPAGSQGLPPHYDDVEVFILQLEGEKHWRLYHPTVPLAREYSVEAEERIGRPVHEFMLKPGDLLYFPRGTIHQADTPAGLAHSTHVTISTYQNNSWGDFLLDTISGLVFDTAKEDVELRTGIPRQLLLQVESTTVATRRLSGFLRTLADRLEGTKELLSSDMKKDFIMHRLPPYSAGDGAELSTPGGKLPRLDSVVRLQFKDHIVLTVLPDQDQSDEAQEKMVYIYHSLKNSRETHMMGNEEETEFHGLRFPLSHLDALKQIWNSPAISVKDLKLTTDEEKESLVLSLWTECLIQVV
Sequence of human JMJD5 (Q8N371 whole entry, the tested form may be a part): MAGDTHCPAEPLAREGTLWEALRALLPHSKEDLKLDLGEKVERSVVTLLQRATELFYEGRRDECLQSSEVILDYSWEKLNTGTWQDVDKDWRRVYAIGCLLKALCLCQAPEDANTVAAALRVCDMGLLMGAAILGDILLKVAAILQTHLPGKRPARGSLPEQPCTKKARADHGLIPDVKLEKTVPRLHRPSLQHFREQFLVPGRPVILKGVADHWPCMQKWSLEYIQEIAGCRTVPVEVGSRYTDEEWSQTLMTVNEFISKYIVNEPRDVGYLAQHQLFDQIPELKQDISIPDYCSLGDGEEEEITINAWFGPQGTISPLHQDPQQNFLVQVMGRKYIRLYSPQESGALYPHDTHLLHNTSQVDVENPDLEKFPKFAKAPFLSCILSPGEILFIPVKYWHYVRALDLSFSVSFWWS
T3 sequence (Q9GZT9 181-426): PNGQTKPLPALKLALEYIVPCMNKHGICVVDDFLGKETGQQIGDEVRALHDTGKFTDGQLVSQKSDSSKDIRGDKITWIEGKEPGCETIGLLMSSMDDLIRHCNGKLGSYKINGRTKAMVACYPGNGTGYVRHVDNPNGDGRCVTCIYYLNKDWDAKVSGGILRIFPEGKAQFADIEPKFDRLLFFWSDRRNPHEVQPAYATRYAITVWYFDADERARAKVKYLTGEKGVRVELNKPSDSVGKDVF

Compound: O=C(O)c1ccnc(C(=O)O)c1C(F)(F)F [Compound 14, 3-trifluoromethyl-2,4-PDCA]
- KDM4E inhibition (in words) (KDM4E [1]): not to inhibit KDM4E
- IC50 (human JMJD5; [6]): > 50 µM
- JMJD5 inhibition (in words) (human JMJD5; [7]): did not efficiently inhibit JMJD5
- IC50 (human JMJD5; [8]): > 50 µM
- AspH inhibition (in words) (AspH [2]; isolated recombinant AspH): does not inhibit

Compound: O=C(O)c1cc(C(=O)O)c(NCCc2ccccc2)cn1 [Compound 20b]
- IC50 (AspH [3]): 1.8 ± 0.1 µM
- IC50 (KDM4E [4]): 5.9 ± 0.6 µM
- IC50 (PHD2): > 50 µM
- IC50 (human JMJD5; [9]): 0.9 ± 0.2 µM
- IC50 (RIOX2): 27.9 ± 6.7 µM

Compound: O=C(O)c1ccnc(C(=O)O)c1Nc1ccc([N+](=O)[O-])cc1 [Compound 23]
- IC50 (KDM4E [5]): 95 µM
- IC50 (human JMJD5; [10]): > 50 µM
- IC50 (human JMJD5; [11]): > 50 µM
- IC50 AspH (AspH [2]): inactive

Compound: O=C(O)c1ccc(Nc2c(C(=O)O)ccnc2C(=O)O)cc1 [Compound 22]
- IC50 (KDM4E [5]): 66 µM
- IC50 (human JMJD5; [10]): > 50 µM
- IC50 (human JMJD5; [11]): > 50 µM
- IC50 AspH (AspH [2]): inactive

Compound: O=C(O)c1cc(C(=O)O)c(NCCCc2ccccc2)cn1 [Compound 20c]
- IC50 (AspH [3]): 2.8 ± 0.4 µM
- IC50 (KDM4E [4]): 28.2 ± 4.1 µM
- IC50 (PHD2): > 50 µM
- IC50 (human JMJD5; [9]): 0.3 ± 0.1 µM
- IC50 (RIOX2): 27.3 ± 6.7 µM

Compound: COc1ccccc1CNc1cnc(C(=O)O)cc1C(=O)O [Compound 20i, 5-((2-methoxybenzyl)amino)pyridine-2,4-dicarboxylic acid]
- IC50 (AspH [3]): 0.9 ± 0.2 µM
- IC50 (KDM4E [4]): 11.3 ± 2.9 µM
- IC50 (PHD2): > 50 µM
- IC50 (RIOX2): > 50 µM

Compound: COc1ccc(CNc2cnc(C(=O)O)cc2C(=O)O)cc1 [Compound 20h, 5-((4-methoxybenzyl)amino)pyridine-2,4-dicarboxylic acid]
- IC50 (AspH [3]): 2 ± 0.4 µM
- IC50 (KDM4E [4]): 15.5 ± 1.9 µM
- IC50 (PHD2): > 50 µM
- IC50 (RIOX2): 27.6 ± 7.1 µM

Compound: O=C(O)c1cc(C(=O)O)c(C(F)(F)F)cn1 [Compound 16, 5-trifluoromethyl-2,4-PDCA]
- KDM4E inhibition (in words) (KDM4E [1]): not to inhibit KDM4E
- IC50 (human JMJD5; [6]): > 50 µM
- JMJD5 inhibition (in words) (human JMJD5; [7]): did not efficiently inhibit JMJD5; also recorded: does not inhibit JMJD5
- IC50 (human JMJD5; [8]): > 50 µM
